Counter-ions that a name gives are not always drawn. Like-named read-outs stand apart in the source and are kept apart here. Square brackets hold non-standard residues; d marks the D form. Peptide text beside a SMILES is read from it. dLac(3-vinyl) = C=CC[C@@H](O)C(=O)O; dHica = CC(C)C[C@@H](O)C(=O)O; NMeV = CN[C@H](C(=O)O)C(C)C; NMeA = CN[C@@H](C)C(=O)O; βAla = NCCC(=O)O
Key:
HCT116/dtxA cells [1] = test: Cell viability assay (MTT, EZ4U); format: cell-based, human; details: for IC50: n ≥ 3
HCT116/dtxB cells = test: Cell viability assay (MTT, EZ4U); format: cell-based, human; details: for IC50: n ≥ 3
[2] = tested on: resistant sublines (HCT116/dtxA, HCT116/dtxB, HCT116/dtxE); test: JC-1 mitochondrial membrane depolarization; format: cell-based, human; details: each destruxin in its respective resistant subline, 48 h, JC-1, FACS
Procedure: (§1) Parental and dtx-resistant cells were seeded (1x10^5 cells/well in 6-well plates) and treated on the following day for 48 h with the indicated concentrations of dtxA, dtxB or dtxE. Next, the mitochondrial membrane potential (ΔΨm) was measured. In doing so, cells were detached by trypsinization, centrifuged with 300× g for 5 min at 4°C and stained with the fluorescent dye JC-1 (5,5’,6,6’-tetrachloro-1,1’,3’,3’-tetraethyl-benzimidazolylcarbocyanine iodide) for 10 min at 37°C. FACS analysis was performed according to the manufacturer’s instructions (Mitochondrial Membrane Potential detection Kit; Stratagene, La Jolla, CA, USA). To further compare apoptotic changes in the parental and resistant cells, Annexin V-APC/PI stainings were carried out.

HCT116/wt cells [3] = test: JC-1 mitochondrial membrane depolarization; format: cell-based, human; details: parental cells, 48 h, JC-1, FACS
Procedure: as §1

HCT116/wt cells [4] = test: Annexin-V/PI staining (apoptosis/necrosis); format: cell-based, human; details: 48 h, 5 μM dtxA, 2.5 μM dtxB, dtxE around the IC50 value, FACS
HCT116/dtxE cells [5] = test: Cell viability assay (MTT, EZ4U); format: cell-based, human; details: for relative resistance: mean IC50 HCT116/dtxE divided by IC50 HCT116/wt; for IC50: HCT116/dtxE, about one year of selection, MTT, mean (± SD), n ≥ 3
HCT116/wt cells [6] = test: Cell viability assay (MTT, EZ4U); format: cell-based, human; details: mean (± SD) of at least three independent experiments in triplicates
BT20 = test: Cell viability, dtxA combined with mevalonate pathway inhibitors; format: cell-based, human; details: BT20, intrinsically low sensitivity, inhibitor with dtxA, 72 h
HCT116/dtxA cells [7] = test: Cell viability, dtxA combined with mevalonate pathway inhibitors, combination index; format: cell-based, human
MCF7 = test: Cell viability, dtxA combined with mevalonate pathway inhibitors; format: cell-based, human; details: MCF7, intrinsically low sensitivity, inhibitor with dtxA, 72 h
parental HCT116 = test: as above; format: cell-based, human; details: parental HCT116, inhibitor with dtxA, 72 h
HCT116/wt cells [8] = test: Whole-cell patch clamp, ionophoric activity; format: cell-based, human; details: parental HCT116/wt, 20 μM dtxA, whole-cell mode, membrane potential -60 mV, RT
Procedure: (§2) Ionophoric activity of dtxA, dtxB and dtxE was determined by patch clamp experiments, performed as previously described. Briefly, ionic currents were recorded in whole-cell mode at RT. Glass electrodes with a resistance less than 5 MΩ were pulled with a DMZ universal puller and filled with intracellular solution (120 mM CsF, 20 mM CsCl, 5 mM EGTA, 5 mM HEPES; pH 7.4). HCT116/wt or resistant cells were perfused with extracellular solution (140 mM NaCl, 4 mM KCl, 1.8 mM CaCl2, 0.75 mM MgCl2, 5 mM HEPES; pH 7.4) in a 1 mL chamber. After obtaining a whole-cell configuration, cells were allowed to equilibrate for 5 min before recording any currents and then pulsed to -60 mV for 10 sec pulses. Data were filtered at 5 kHz and digitized at 10 kHz by using digidata 1440A. Traces were averaged and subtracted from control recording, in the presence or absence of 20 μM dtxA, dtxB or dtxE, to observe ionophoric activity.

HCT116/dtxA cells [9] = test: Whole-cell patch clamp, ionophoric activity; format: cell-based, human; details: resistant HCT116/dtxA, 20 μM dtxA, whole-cell mode, membrane potential -60 mV, RT
Procedure: as §2

HeLa cell derivative = tested on: HeLa cell derivative; parameters: method as in PMID 19517454; details: 18 months selection period of a HeLa cell derivative; cited from earlier work
HCT116/dtxE cells [10] = details: 10 μM verapamil or 1 μM cyclosporin A with increasing dtxE
[11] = mean IC50 HCT116/dtxA divided by IC50 HCT116/wt
[12] = HCT116/dtxB, about one year of selection, 72 h, MTT, mean (± SD)
[13] = mean IC50 HCT116/dtxB divided by IC50 HCT116/wt
[14] = HCT116/dtxA, about one year of selection, 72 h, MTT, mean (± SD)
[15] = HCT116/dtxA, inhibitor 24 h pretreatment, then dtxA 72 h, statins at concentrations above 2.5 μM, Chou-Talalay, CalcuSyn, CI < 1 synergism

CC[C@H](C)[C@@H]1NC(=O)[C@@H]2CCCN2C(=O)[C@@H](CC(C)C)OC(=O)CCNC(=O)[C@H](C)N(C)C(=O)[C@H](C(C)C)N(C)C1=O [dtxB, destruxin B] (cyclo([dHica]PI[NMeV][NMeA][βAla]))
relative resistance (HCT116/dtxA cells [1]; [11]): 18.2 -fold | IC50 (HCT116/dtxB cells; HCT116/dtxB (unsel.), removed from drug selection for one month, 72 h, mean): > 100000 nM | relative resistance (HCT116/dtxB cells; HCT116/dtxB vs HCT116/wt, month 4 after selection start): 4.4 -fold | relative resistance (HCT116/dtxB cells; HCT116/dtxB vs HCT116/wt, month 6 after selection start): 4.2 -fold | relative resistance (HCT116/dtxB cells; HCT116/dtxB vs HCT116/wt, month 8 after selection start): > 25 -fold | relative resistance (HCT116/dtxB cells; HCT116/dtxB vs HCT116/wt, month 12 after selection start): > 40 -fold | IC50 (HCT116/dtxB cells; [12]): > 100000 nM | relative resistance (HCT116/dtxB cells; [13]): >40 -fold | mitochondrial membrane depolarization [2]: no significant increase | mitochondrial membrane depolarization (HCT116/wt cells [3]): only observed in parental cells | percentages of early and/or late apoptotic cells (HCT116/wt cells [4]): markedly and significantly increased | relative resistance (HCT116/dtxE cells [5]): 0.3 -fold

NC(=S)N/N=C/c1ncccc1N [Triapin]
IC50 (HCT116/dtxA cells [1]; [14]): 600 nM | IC50 (HCT116/dtxB cells; [12]): 800 nM | IC50 (HCT116/dtxE cells [5]; 72 h): 800 nM | IC50 (HCT116/wt cells [6]; 72 h): 800 nM

CC(C)n1c(/C=C/C(O)CC(O)CC(=O)O)c(-c2ccc(F)cc2)c2ccccc21 (stereo not drawn) [fluvastatin, fluvastatin sodium salt hydrate]
effect on cytotoxic activity of dtxA (BT20): augmented | combination index (CI) in combination with dtxA (HCT116/dtxA cells [7]; [15]): smaller than 1 | effect on cytotoxic activity of dtxA (MCF7): augmented | effect on cytotoxic activity of dtxA (parental HCT116): augmented

C=CC[C@H]1OC(=O)CCNC(=O)[C@H](C)N(C)C(=O)[C@H](C(C)C)N(C)C(=O)[C@H]([C@@H](C)CC)NC(=O)[C@@H]2CCCN2C1=O [dtxA, destruxin A] (cyclo([dLac(3-vinyl)]PI[NMeV][NMeA][βAla]))
IC50 (HCT116/dtxA cells [1]; HCT116/dtxA (unsel.), removed from drug selection for one month, 72 h, mean): > 100000 nM | relative resistance (HCT116/dtxA cells [1]; HCT116/dtxA vs HCT116/wt, month 6 after selection start): 3.5 -fold | relative resistance (HCT116/dtxA cells [1]; HCT116/dtxA vs HCT116/wt, month 8 after selection start): > 20 -fold | IC50 (HCT116/dtxA cells [1]; [14]): > 100000 nM | relative resistance (HCT116/dtxA cells [1]; [11]): >28.6 -fold | relative resistance (HCT116/dtxB cells; [13]): 21.8 -fold | mitochondrial membrane depolarization [2]: no significant increase | mitochondrial membrane depolarization (HCT116/wt cells [3]): only observed in parental cells | percentages of early and/or late apoptotic cells (HCT116/wt cells [4]): markedly and significantly increased | relative resistance (HCT116/dtxE cells [5]): 0.3 -fold | mean total current (pore forming ability) (HCT116/wt cells [8]): -0.7 pA/ms | mean total current (pore forming ability) (HCT116/dtxA cells [9]): -0.2 pA/ms

Nc1ccn([C@@H]2O[C@H](CO)[C@@H](O)C2(F)F)c(=O)n1 [Gemcitabin]
IC50 (HCT116/dtxA cells [1]; [14]): 400 nM | IC50 (HCT116/dtxB cells; [12]): 400 nM | IC50 (HCT116/dtxE cells [5]; 72 h): 300 nM | IC50 (HCT116/wt cells [6]; 72 h): 400 nM

CC(C)[C@H]1OC(=O)[C@H](Cc2ccccc2)N(C)C(=O)[C@@H](C(C)C)OC(=O)[C@H](Cc2ccccc2)N(C)C(=O)[C@@H](C(C)C)OC(=O)[C@H](Cc2ccccc2)N(C)C1=O [Beauvericin]
resistance obtained (HeLa cell derivative): no resistance

O=P(O)(O)C(O)(Cn1ccnc1)P(=O)(O)O [zoledronic acid, zoledronic acid monohydrate]
effect on cytotoxic activity of dtxA (BT20): augmented | combination index (CI) in combination with dtxA (HCT116/dtxA cells [7]): smaller than 1 | effect on cytotoxic activity of dtxA (MCF7): augmented | effect on cytotoxic activity of dtxA (parental HCT116): augmented

CC[C@@]1(O)C(=O)OCc2c1cc1n(c2=O)Cc2cc3c(CN(C)C)c(O)ccc3nc2-1 [Topotecan]
IC50 (HCT116/dtxA cells [1]; Homo sapiens, HCT-116, HCT116/dtxA, about one year of selection, 72 h, MTT, mean (± SD)): 26 nM | IC50 (HCT116/dtxB cells; Homo sapiens, HCT-116, HCT116/dtxB, about one year of selection, 72 h, MTT, mean (± SD)): 8.2 nM | IC50 (HCT116/dtxE cells [5]; Homo sapiens, HCT-116, 72 h): 25 nM | IC50 (HCT116/wt cells [6]; Homo sapiens, HCT-116, 72 h): 27.4 nM

O=c1[nH]cc(F)c(=O)[nH]1 [5-FU]
IC50 (HCT116/dtxA cells [1]; [14]): 36400 nM | IC50 (HCT116/dtxB cells; [12]): 38900 nM | IC50 (HCT116/dtxE cells [5]; 72 h): 34700 nM | IC50 (HCT116/wt cells [6]; 72 h): 52000 nM

O=C1[O][Pt]2([NH][C@@H]3CCCC[C@H]3[NH]2)[O]C1=O [Oxaliplatin]
IC50 (HCT116/dtxA cells [1]; [14]): 500 nM | IC50 (HCT116/dtxB cells; [12]): 1000 nM | IC50 (HCT116/dtxE cells [5]; 72 h): 400 nM | IC50 (HCT116/wt cells [6]; 72 h): 800 nM

N.N.[Cl][Pt][Cl] [Cisplatin]
IC50 (HCT116/dtxA cells [1]; [14]): 1900 nM | IC50 (HCT116/dtxB cells; [12]): 2200 nM | IC50 (HCT116/dtxE cells [5]; 72 h): 4400 nM | IC50 (HCT116/wt cells [6]; 72 h): 4000 nM

CC[C@H](C)C(=O)O[C@H]1C[C@@H](C)C=C2C=C[C@H](C)[C@H](CC[C@@H]3C[C@@H](O)CC(=O)O3)[C@H]21 [lovastatin, lovastatin (Mevinolin)]
combination index (CI) in combination with dtxA (HCT116/dtxA cells [7]; [15]): smaller than 1 | effect on cytotoxic activity of dtxA (parental HCT116): augmented

CC[C@]1(O)C[C@H]2CN(CCc3c([nH]c4ccccc34)[C@@](C(=O)OC)(c3cc4c(cc3OC)N(C=O)[C@H]3[C@@](O)(C(=O)OC)[C@H](OC(C)=O)[C@]5(CC)C=CCN6CC[C@]43[C@@H]65)C2)C1 [vincristine]
cytotoxic activity compared to parental cells (reduction) (HCT116/dtxA cells [1]; HCT116/dtxA vs HCT116/wt, 72 h): absent | cytotoxic activity compared to parental cells (reduction) (HCT116/dtxB cells; HCT116/dtxB vs HCT116/wt, 72 h): very weak | cytotoxic activity compared to parental cells (HCT116/dtxE cells [5]; HCT116/dtxE vs HCT116/wt, 72 h): significantly reduced cytotoxic activity

COc1ccc(CCN(C)CCCC(C#N)(c2ccc(OC)c(OC)c2)C(C)C)cc1OC (stereo not drawn) [verapamil]
sensitivity of HCT116/dtxE cells towards dtxE on co-incubation (HCT116/dtxE cells [10]): partly restored
